Drawing on US12606541B2, “PPARg modulators and methods of use” (Eisai R&D Management Co., Ltd., priority 2020, dated 2026), this text covers AC50 and IC50 for 23 compounds.

For one test, the target named is T1, His6-TEV-PPARγ-(234-505) (Homo sapiens, UniProt P37231).
T1 construct: The His6-TEV-PPARγ-(234-505) protein for assay was expressed and purified; TEV cleavage site (N); made in house
T1 sequence (P37231 234-505): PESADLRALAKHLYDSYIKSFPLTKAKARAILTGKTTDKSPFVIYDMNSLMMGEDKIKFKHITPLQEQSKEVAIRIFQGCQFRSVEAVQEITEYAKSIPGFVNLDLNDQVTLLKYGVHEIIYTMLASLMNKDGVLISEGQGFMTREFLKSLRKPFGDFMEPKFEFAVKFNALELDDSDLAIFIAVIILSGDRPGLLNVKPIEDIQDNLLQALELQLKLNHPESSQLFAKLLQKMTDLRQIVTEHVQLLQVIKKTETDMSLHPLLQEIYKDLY
Nature of the test: TR-FRET Assay to Measure Co-R Peptide Recruitment to PPARγ. In kind it is biochemical. Particulars: Co-R peptide (SMRT-ID2) recruitment; top final concentration 20 μM; read-out: TR-FRET i-Ag; AC50. In a few lines: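 His-tagged PPARγ (or controls) was preincubated with compound for 20 minutes at room temperature, then 5 nM anti-His terbium antibody and 200 nM FITC-labeled SMRT-ID2 corepressor peptide (final) were added for a further hour. TR-FRET signal was normalized to percent response using 500 nM T0070907 and DMSO controls.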

A further test relates to UM-UC-9 engineered cells. Nature of the test: Cell proliferation / short-term viability assay, CellTiter-Glo 144 h. Format: cell-based, human. Conditions: read-out: CTGlo 144 h UMUC9.5, G150. In a few lines: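 UM-UC-9 engineered assay-ready cells seeded at 500 cells/well in high-glucose DMEM/10% FBS, treated from dose-response plates, grown at 37° C, 5% CO2. CellTiter-Glo 2.0 luminescence read on day 7, with a day-0 pretreatment plate as T0 reference and DMSO wells as negative control.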
Background: In ATP-based viability assays light output follows the ATP content of the culture.

Like-named read-outs stand apart in the source and are kept apart here.

Turning to `COc1cc(-c2cc(C(=O)N3CC[C@H](C(=O)NC4CCN(C5COC56CNC6)C4)CC34CC4)n[nH]2)c(F)cn1` (single isomer, unassigned) [Example 461-B], the AC50 at His6-TEV-PPARγ-(234-505) worked out at 324 nM. In addition, in the test on UM-UC-9 engineered cells, the IC50 was more than 10000 nM.

Regarding `Cc1cc(-c2cc(C(=O)N3CCC(C(=O)NCc4cccc(Cl)c4)CC3)n[nH]2)c(Cl)cn1` [Example 262, 1-[5-(5-chloro-2-methylpyridin-4-yl)-1H-pyrazole-3-carbonyl]-N-[(3-chlorophenyl)methyl]piperidine-4-carboxamide], the AC50 at His6-TEV-PPARγ-(234-505) was determined as 29.2 nM. For the same compound, the IC50 in the test with UM-UC-9 engineered cells (Homo sapiens, UM-UC-9, 144 h) stood at 332 nM.

Turning to `COc1cc(-c2cc(C(=O)N3CC[C@H](C(=O)NCc4cccnc4C(F)(F)F)CC34CC4)[nH]n2)c(F)cn1` [Example 500, (S)-4-(3-(5-fluoro-2-methoxypyridin-4-yl)-1H-pyrazole-5-carbonyl)-N-((2-(trifluoromethyl)pyridin-3-yl)methyl)-4-azaspiro[2.5]octane-7-carboxamide], the AC50 at His6-TEV-PPARγ-(234-505) came out at 7.5 nM. Also, the IC50 with UM-UC-9 engineered cells (Homo sapiens, UM-UC-9, 144 h) was 13.3 nM.

Turning to `COc1cc(-c2cc(C(=O)N3[C@@H]4CC[C@H]3C[C@H](C(=O)NC3CCC5(CCO5)CC3)C4)n[nH]2)c(F)cn1` (mixture of isomers) [Example 297, (1R,3S,5S)-8-[5-(5-fluoro-2-methoxypyridin-4-yl)-1H-pyrazole-3-carbonyl]-N-[1-oxaspiro[3.5]nonan-7-yl]-8-azabicyclo[3.2.1]octane-3-carboxamide], on His6-TEV-PPARγ-(234-505), the AC50 is 120 nM. Also, the IC50 in the test on UM-UC-9 engineered cells (Homo sapiens, UM-UC-9, 144 h) is 383 nM.

As to `COc1cc(-c2cc(C(=O)N3CC[C@H](C(=O)Nc4cnn5cc(C(C)O)ccc45)CC34CC4)n[nH]2)c(F)cn1` (single isomer, unassigned) [Example 495-A], on His6-TEV-PPARγ-(234-505), the AC50 is 23.2 nM. Also, the IC50 in the test on UM-UC-9 engineered cells worked out at 287 nM.

For the compound `COc1cc(-c2cc(C(=O)N3CCC(C(=O)NCc4ccc(C(F)(F)F)nc4)CC3)n[nH]2)c(Cl)cn1` [Example 178, 1-(5-(5-chloro-2-methoxypyridin-4-yl)-1H-pyrazole-3-carbonyl)-N-((6-(trifluoro-15-methyl)pyridin-3-yl)methyl)piperidine-4-carboxamide], the AC50 at His6-TEV-PPARγ-(234-505) was 344 nM. In addition, the IC50 in the test on UM-UC-9 engineered cells (Homo sapiens, UM-UC-9, 144 h) amounted to 1260 nM.

On to `COc1cc(-c2cc(C(=O)N3CCC(C(=O)NC4CCOc5ccccc54)CC3)n[nH]2)c(Cl)cn1` (stereo not shown) [Example 184, 1-(5-(5-chloro-2-methoxypyridin-4-yl)-1H-pyrazole-3-carbonyl)-N (chroman-4-yl)piperidine-4-carboxamide], for which the AC50 on His6-TEV-PPARγ-(234-505) was 215 nM. The IC50 in the test on UM-UC-9 engineered cells (Homo sapiens, UM-UC-9, 144 h) was determined as 384 nM.

On to `COc1cc(-c2cc(C(=O)N3CC[C@H](C(=O)N[C@H]4CC[C@@](OC[C@H](C)O)(C(F)(F)F)CC4)CC34CC4)n[nH]2)c(F)cn1` [Example 353, (S)-4-(5-(5-fluoro-2-methoxypyridin-4-yl)-1H-pyrazole-3-carbonyl)-N-((1S,4S)-4-((S)-2-hydroxypropoxy)-4-(trifluoromethyl)cyclohexyl)-4-azaspiro[2.5]octane-7-carboxamide], for which, on His6-TEV-PPARγ-(234-505), the AC50 was determined as 6.6 nM. For the same compound, the IC50 with UM-UC-9 engineered cells (Homo sapiens, UM-UC-9, 144 h) came out at 6 nM.

Take `Cc1nccc(-c2cc(C(=O)N3[C@@H]4CC[C@H]3C[C@H](C(=O)N[C@H]3CC[C@@](O)(C(F)(F)F)CC3)C4)n[nH]2)c1C` [Example 314, (1R,3s,5S)-8-(5-(2,3-dimethylpyridin-4-yl)-1H-pyrazole-3-carbonyl)-N-((1r,4R)-4-hydroxy-4-(trifluoromethyl)cyclohexyl)-8-azabicyclo[3.2.1]octane-3-carboxamide]: at His6-TEV-PPARγ-(234-505), the AC50 is 347 nM. Besides, the IC50 in the test with UM-UC-9 engineered cells (Homo sapiens, UM-UC-9, 144 h) is more than 10000 nM.

For `COc1cc(-c2cc(C(=O)N3CC[C@H](C(=O)NC(C)c4cn5c(n4)COCC5)CC34CC4)n[nH]2)c(F)cn1` (single isomer, unassigned) [Example 415-A], at His6-TEV-PPARγ-(234-505), the AC50 turned out to be 88.1 nM. Also, the IC50 with UM-UC-9 engineered cells came out at 304 nM.

Turning to `COc1cc(-c2cc(C(=O)N3CCC(C(=O)NCc4cccc(Cl)c4)CC3(C)C)n[nH]2)c(Cl)cn1` (racemic) [Example 255], the AC50 at His6-TEV-PPARγ-(234-505) stood at 63.3 nM. Also, in the test with UM-UC-9 engineered cells (Homo sapiens, UM-UC-9, 144 h), the IC50 was determined as 151 nM.

Take `COc1cc(-c2cc(C(=O)N3CC[C@H](C(=O)NC4CCN(C5COC56CNC6)C4)CC34CC4)n[nH]2)c(F)cn1` (single isomer, unassigned) [Example 461-A]: the AC50 at His6-TEV-PPARγ-(234-505) was found to be 272 nM. Further, in the test with UM-UC-9 engineered cells, the IC50 was more than 10000 nM.

For the compound `COc1cc(-c2cc(C(=O)N3CCC(C(=O)Nc4cnn5c4CC(O)CC5)CC34CC4)n[nH]2)c(F)cn1` (mixture of isomers) [Example 514, (S)-4-(5-(5-fluoro-2-methoxypyridin-4-yl)-1H-pyrazole-3-carbonyl)-N—((S)-5-hydroxy-4,5,6,7-tetrahydropyrazolo[1,5-a]pyridin-3-yl)-4-azaspiro[2.5]octane-7-carboxamide and (S)-4-(5-(5-fluoro-2-methoxypyridin-4-yl)-1H-pyrazole-3-carbonyl)-N—((R)-5-hydroxy-4,5,6,7-tetrahydropyrazolo[1,5-a]pyridin-3-yl)-4-azaspiro[2.5]octane-7-carboxamide], the AC50 on His6-TEV-PPARγ-(234-505) was 33.7 nM. The IC50 in the test on UM-UC-9 engineered cells was more than 10000 nM.

For `COc1cc(-c2cc(C(=O)N3CC[C@H](C(=O)NCc4ncc(OC5COC5)cc4Cl)CC34CC4)n[nH]2)c(F)cn1` [Example 446, (S)—N-((3-chloro-5-(oxetan-3-yloxy)pyridin-2-yl)methyl)-4-(5-(5-fluoro-2-methoxypyridin-4-yl)-1H-pyrazole-3-carbonyl)-4-azaspiro[2.5]octane-7-carboxamide], the AC50 on His6-TEV-PPARγ-(234-505) is 1.3 nM. Also, the IC50 in the test with UM-UC-9 engineered cells (Homo sapiens, UM-UC-9, 144 h) came out at 27.4 nM.

For `COc1cc(-c2cc(C(=O)N3CC[C@H](C(=O)N[C@H]4CN(c5ccc(C)nc5)C[C@@H]4F)CC34CC4)n[nH]2)c(F)cn1` [Example 427, (S)—N-((3S,4S)-4-fluoro-1-(6-methylpyridin-3-yl)pyrrolidin-3-yl)-4-(5-(5-fluoro-2-methoxypyridin-4-yl)-1H-pyrazole-3-carbonyl)-4-azaspiro[2.5]octane-7-carboxamide], the AC50 on His6-TEV-PPARγ-(234-505) is 10.5 nM. Moreover, the IC50 in the test with UM-UC-9 engineered cells (Homo sapiens, UM-UC-9, 144 h) worked out at 4.2 nM.

Take `COc1cc(-c2cc(C(=O)N3CCC(C(=O)NCC4CCNCC4(F)F)CC34CC4)n[nH]2)c(F)cn1` (mixture of isomers) [Example 511, (S)—N—(((S)-3,3-difluoropiperidin-4-yl)methyl)-4-(5-(5-fluoro-2-methoxypyridin-4-yl)-1H-pyrazole-3-carbonyl)-4-azaspiro[2.5]octane-7-carboxamide and (S)—N—(((R)-3,3-difluoropiperidin-4-yl)methyl)-4-(5-(5-fluoro-2-methoxypyridin-4-yl)-1H-pyrazole-3-carbonyl)-4-azaspiro[2.5]octane-7-carboxamide]: the AC50 at His6-TEV-PPARγ-(234-505) stood at 10.6 nM. For the same compound, in the test on UM-UC-9 engineered cells, the IC50 was found to be 95.2 nM.

Turning to `COc1cc(-c2cc(C(=O)N3CCC(C(=O)NCc4ccc(C(F)(F)F)cn4)CC3)n[nH]2)c(Cl)cn1` [Example 139, 1-(5-(5-chloro-2-methoxypyridin-4-yl)-1H-pyrazole-3-carbonyl)-N-((5-(trifluoromethyl)pyridin-2-yl)methyl)piperidine-4-carboxamide], the AC50 at His6-TEV-PPARγ-(234-505) came to 336 nM. Also, in the test on UM-UC-9 engineered cells (Homo sapiens, UM-UC-9, 144 h), the IC50 was determined as 1790 nM.

Turning to `COc1cc(-c2cc(C(=O)N3CCC(C(=O)NC4CC5COCC(C4)N5C)CC34CC4)n[nH]2)c(F)cn1` (stereo not shown) [Example 419-A], the AC50 on His6-TEV-PPARγ-(234-505) was determined as 359 nM. In addition, the IC50 in the test on UM-UC-9 engineered cells (Homo sapiens, UM-UC-9, 144 h) came out at 854 nM.

Take `COc1cc(-c2cc(C(=O)N3CC[C@H](C(=O)NC4CCC(N)(C(F)(F)F)CC4)CC34CC4)n[nH]2)c(F)cn1` (single isomer, unassigned) [Example 399-A]: the AC50 at His6-TEV-PPARγ-(234-505) was 298 nM. In addition, the IC50 in the test with UM-UC-9 engineered cells (Homo sapiens, UM-UC-9, 144 h) turned out to be 176 nM.

On to `COc1cc(-c2cc(C(=O)N3CC[C@H](C(=O)NCc4nc(C)c(C)n4C)CC34CC4)n[nH]2)c(F)cn1` [Example 465, (S)-4-(5-(5-fluoro-2-methoxypyridin-4-yl)-1H-pyrazole-3-carbonyl)-N-((1,4,5-trimethyl-1H-imidazol-2-yl)methyl)-4-azaspiro[2.5]octane-7-carboxamide], for which the AC50 at His6-TEV-PPARγ-(234-505) worked out at 88.6 nM. Also, the IC50 with UM-UC-9 engineered cells (Homo sapiens, UM-UC-9, 144 h) worked out at 842 nM.

With `COc1cc(-c2cc(C(=O)N3CC[C@H](C(=O)N[C@H]4CC[C@@](OCCN(C)C)(C(F)(F)F)CC4)CC34CC4)n[nH]2)c(F)cn1` [Example 329-A, (S)—N-((1r,4S)-4-(2-(dimethylamino)ethoxy)-4-(trifluoromethyl)cyclohexyl)-4-(5-(5-fluoro-2-methoxypyridin-4-yl)-1H-pyrazole-3-carbonyl)-4-azaspiro[2.5]octane-7-carboxamide], the AC50 on His6-TEV-PPARγ-(234-505) is 7.5 nM. Further, in the test with UM-UC-9 engineered cells (Homo sapiens, UM-UC-9, 144 h), the IC50 worked out at 24.3 nM.

Turning to `COc1cc(-c2cc(C(=O)N3CC[C@H](C(=O)NC4CCC5(CCCN5)CC4)CC34CC4)n[nH]2)c(F)cn1` (stereo partly drawn) [Example 348, (S)-4-(5-(5-fluoro-2-methoxypyridin-4-yl)-1H-pyrazole-3-carbonyl)-N-(1-azaspiro[4.5]decan-8-yl)-4-azaspiro[2.5]octane-7-carboxamide], the AC50 at His6-TEV-PPARγ-(234-505) turned out to be 305 nM. Also, the IC50 in the test on UM-UC-9 engineered cells (Homo sapiens, UM-UC-9, 144 h) was more than 10000 nM.

In the case of `COc1cc(-c2cc(C(=O)N3CC[C@H](C(=O)NC4CCN(C5COC56CNC6)C4)CC34CC4)n[nH]2)c(F)cn1` (single isomer, unassigned) [Example 461-D], the AC50 on His6-TEV-PPARγ-(234-505) was 388 nM. The IC50 in the test with UM-UC-9 engineered cells is more than 10000 nM.
